Test results taken from ChEMBL document CHEMBL1152560, “Substituted 2-arylbenzothiazoles as kinase inhibitors: hit-to-lead optimization” (Bioorg Med Chem, 2009).

Experiments:
[1] = biological target: T1, Activin receptor type-1 (Homo sapiens) (UniProt Q04771); assay: Residual activity of ACV-R1 at 0.1 uM by microplate scintillation counting
T1 sequence (whole entry): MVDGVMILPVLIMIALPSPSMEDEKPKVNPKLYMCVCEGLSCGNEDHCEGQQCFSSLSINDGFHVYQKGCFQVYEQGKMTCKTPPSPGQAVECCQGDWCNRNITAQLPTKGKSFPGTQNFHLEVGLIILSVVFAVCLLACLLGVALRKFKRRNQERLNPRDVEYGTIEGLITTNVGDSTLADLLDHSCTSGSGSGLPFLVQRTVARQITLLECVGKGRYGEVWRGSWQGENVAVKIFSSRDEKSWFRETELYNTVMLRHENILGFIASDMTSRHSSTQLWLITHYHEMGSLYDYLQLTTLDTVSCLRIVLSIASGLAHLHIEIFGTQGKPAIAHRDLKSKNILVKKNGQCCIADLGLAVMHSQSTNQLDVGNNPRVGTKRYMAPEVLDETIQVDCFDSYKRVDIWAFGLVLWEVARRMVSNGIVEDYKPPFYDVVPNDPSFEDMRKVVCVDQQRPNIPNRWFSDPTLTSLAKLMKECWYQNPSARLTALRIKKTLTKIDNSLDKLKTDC

[2] = biological target: Mitogen-activated protein kinase 10 (Homo sapiens) (UniProt P53779); assay: Residual activity of JNK3 at 0.1 uM by microplate scintillation counting
Sequence of Mitogen-activated protein kinase 10 (Homo sapiens) (P53779 whole entry): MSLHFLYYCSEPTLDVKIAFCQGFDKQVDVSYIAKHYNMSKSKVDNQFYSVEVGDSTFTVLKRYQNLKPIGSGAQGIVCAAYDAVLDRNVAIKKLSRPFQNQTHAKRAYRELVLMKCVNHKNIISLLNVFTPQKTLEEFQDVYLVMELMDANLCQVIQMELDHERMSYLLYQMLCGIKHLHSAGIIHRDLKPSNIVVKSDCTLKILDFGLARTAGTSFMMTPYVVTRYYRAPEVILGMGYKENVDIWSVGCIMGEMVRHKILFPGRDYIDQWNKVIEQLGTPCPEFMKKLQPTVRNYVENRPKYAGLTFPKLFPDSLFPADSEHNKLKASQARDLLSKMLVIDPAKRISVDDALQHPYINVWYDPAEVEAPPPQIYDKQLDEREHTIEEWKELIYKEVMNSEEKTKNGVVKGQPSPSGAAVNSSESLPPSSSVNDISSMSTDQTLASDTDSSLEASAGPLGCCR

[3] = biological target: T2, Serine/threonine-protein kinase Sgk1 (Homo sapiens) (UniProt O00141); assay: Residual activity of SGK1 at 0.1 uM by microplate scintillation counting
T2 sequence (whole entry): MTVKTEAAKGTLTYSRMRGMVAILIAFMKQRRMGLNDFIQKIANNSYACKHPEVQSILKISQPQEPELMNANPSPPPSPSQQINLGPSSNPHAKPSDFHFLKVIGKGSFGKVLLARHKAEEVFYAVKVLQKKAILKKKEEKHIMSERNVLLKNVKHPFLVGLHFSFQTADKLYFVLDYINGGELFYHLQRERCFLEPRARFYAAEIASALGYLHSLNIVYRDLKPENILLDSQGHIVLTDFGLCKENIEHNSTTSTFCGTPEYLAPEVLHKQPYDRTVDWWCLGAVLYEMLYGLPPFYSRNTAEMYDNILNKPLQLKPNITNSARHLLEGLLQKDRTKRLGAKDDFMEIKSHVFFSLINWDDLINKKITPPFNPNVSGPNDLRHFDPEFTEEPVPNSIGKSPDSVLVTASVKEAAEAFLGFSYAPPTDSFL

[4] = biological target: Homeodomain-interacting protein kinase 1 (Homo sapiens) (UniProt Q86Z02); assay: Residual activity of HIPK1 at 0.1 uM by microplate scintillation counting
Sequence of Homeodomain-interacting protein kinase 1 (Homo sapiens) (Q86Z02 whole entry, looked up): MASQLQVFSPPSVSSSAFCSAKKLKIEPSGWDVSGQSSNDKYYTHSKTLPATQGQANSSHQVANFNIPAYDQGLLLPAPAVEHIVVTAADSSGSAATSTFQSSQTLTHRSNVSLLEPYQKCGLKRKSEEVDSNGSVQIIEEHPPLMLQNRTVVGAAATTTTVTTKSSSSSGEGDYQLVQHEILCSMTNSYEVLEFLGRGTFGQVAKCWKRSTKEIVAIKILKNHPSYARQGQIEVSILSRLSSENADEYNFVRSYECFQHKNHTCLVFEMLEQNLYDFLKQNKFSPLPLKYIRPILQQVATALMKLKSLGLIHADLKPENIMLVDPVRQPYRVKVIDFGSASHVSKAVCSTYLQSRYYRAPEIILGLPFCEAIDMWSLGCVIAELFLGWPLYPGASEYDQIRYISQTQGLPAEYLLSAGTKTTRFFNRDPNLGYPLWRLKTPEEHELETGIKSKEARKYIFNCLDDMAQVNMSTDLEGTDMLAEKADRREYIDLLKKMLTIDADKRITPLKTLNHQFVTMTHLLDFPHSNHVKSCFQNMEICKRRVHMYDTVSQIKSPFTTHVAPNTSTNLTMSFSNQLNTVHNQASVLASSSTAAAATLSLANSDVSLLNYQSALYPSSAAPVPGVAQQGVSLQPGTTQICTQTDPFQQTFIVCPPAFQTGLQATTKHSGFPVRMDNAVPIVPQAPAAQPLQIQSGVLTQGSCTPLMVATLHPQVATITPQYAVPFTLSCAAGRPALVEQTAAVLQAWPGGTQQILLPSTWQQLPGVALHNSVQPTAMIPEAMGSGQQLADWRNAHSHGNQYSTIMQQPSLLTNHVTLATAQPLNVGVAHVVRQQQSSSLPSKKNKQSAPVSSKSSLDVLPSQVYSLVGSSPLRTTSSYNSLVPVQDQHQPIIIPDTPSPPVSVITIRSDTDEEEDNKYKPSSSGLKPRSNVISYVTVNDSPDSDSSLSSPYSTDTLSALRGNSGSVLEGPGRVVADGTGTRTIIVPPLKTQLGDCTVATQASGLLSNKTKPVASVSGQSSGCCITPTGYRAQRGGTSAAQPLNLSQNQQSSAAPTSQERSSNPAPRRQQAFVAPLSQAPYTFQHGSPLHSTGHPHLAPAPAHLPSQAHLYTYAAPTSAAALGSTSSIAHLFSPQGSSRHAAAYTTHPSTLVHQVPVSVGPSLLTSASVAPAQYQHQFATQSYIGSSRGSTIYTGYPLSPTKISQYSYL

[5] = biological target: T3, Interleukin-1 receptor-associated kinase 4 (Homo sapiens) (UniProt Q9NWZ3); assay: Residual activity of IRAK4 at 1 uM by microplate scintillation counting
T3 sequence (whole entry): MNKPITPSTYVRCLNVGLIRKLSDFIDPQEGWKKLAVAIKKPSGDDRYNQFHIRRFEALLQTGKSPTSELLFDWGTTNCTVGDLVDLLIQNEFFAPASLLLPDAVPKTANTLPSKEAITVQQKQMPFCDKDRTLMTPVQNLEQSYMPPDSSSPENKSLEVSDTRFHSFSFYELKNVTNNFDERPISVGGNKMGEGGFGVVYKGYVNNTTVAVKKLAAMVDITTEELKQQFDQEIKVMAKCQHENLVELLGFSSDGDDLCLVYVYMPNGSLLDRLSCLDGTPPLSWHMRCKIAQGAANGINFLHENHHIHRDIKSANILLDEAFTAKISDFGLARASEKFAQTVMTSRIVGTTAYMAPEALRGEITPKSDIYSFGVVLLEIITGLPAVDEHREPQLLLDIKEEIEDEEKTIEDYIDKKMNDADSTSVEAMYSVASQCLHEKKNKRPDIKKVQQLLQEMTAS

[6] = biological target: Protein kinase C alpha type (Homo sapiens) (UniProt P17252); assay: Residual activity of PKCalpha at 1 uM by microplate scintillation counting
[7] = biological target: T4, Activin receptor type-1B (Homo sapiens) (UniProt P36896); assay: Residual activity of ACVR1B at 0.1 uM by microplate scintillation counting
T4 sequence (whole entry): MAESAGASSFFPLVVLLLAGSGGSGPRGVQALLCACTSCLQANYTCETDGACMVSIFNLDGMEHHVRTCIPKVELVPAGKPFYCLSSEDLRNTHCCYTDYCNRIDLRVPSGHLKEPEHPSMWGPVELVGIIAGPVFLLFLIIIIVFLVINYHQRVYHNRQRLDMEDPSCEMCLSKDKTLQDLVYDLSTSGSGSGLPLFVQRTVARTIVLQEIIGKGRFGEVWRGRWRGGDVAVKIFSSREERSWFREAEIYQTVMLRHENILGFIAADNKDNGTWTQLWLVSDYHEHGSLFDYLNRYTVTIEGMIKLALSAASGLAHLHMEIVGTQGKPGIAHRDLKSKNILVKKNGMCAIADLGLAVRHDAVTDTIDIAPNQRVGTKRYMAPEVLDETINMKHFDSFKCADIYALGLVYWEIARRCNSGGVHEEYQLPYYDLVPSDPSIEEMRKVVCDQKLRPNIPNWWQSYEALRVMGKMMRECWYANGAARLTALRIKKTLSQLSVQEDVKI

[8] = biological target: Rho-associated protein kinase 1 (Homo sapiens) (UniProt Q13464); assay: Residual activity of ROCK1 at 10 uM by microplate scintillation counting
Sequence of Rho-associated protein kinase 1 (Homo sapiens) (Q13464 2-1354 limits assumed): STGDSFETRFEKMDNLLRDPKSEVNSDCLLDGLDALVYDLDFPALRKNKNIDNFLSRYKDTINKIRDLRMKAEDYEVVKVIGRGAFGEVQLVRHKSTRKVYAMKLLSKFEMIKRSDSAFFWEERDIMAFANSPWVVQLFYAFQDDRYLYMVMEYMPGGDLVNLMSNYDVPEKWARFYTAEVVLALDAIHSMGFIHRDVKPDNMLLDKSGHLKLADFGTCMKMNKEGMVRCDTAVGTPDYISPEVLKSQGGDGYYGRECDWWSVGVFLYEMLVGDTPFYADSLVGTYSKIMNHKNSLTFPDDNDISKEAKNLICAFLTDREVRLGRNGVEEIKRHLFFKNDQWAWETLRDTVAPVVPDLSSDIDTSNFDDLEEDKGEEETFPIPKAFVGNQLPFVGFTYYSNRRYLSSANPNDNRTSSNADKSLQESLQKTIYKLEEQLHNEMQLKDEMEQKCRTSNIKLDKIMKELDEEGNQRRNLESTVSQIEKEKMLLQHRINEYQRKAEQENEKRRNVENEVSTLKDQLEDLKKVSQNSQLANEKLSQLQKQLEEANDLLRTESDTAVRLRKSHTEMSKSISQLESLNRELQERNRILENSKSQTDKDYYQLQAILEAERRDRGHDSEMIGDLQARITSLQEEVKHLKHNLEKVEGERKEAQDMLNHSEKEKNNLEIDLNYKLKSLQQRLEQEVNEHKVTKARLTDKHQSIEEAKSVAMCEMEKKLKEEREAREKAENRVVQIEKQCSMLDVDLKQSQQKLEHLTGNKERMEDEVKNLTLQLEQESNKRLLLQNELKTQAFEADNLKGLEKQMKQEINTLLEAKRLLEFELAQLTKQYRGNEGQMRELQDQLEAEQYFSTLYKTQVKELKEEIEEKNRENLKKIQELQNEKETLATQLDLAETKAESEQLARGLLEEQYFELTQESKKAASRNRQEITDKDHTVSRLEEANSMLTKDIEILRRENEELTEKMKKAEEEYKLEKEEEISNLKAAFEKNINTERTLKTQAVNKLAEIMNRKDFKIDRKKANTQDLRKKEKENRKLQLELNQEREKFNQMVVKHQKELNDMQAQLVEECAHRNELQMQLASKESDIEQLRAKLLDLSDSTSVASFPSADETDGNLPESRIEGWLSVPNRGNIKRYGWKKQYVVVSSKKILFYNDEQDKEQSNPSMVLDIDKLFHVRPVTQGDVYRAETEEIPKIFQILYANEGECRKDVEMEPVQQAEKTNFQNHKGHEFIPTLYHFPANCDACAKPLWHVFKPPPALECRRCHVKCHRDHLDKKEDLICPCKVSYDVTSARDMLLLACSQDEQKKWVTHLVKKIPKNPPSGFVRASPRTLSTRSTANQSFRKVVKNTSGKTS

[9] = biological target: G protein-coupled receptor kinase 6 (Homo sapiens) (UniProt P43250); assay: Residual activity of GRK6 at 1 uM by microplate scintillation counting
Sequence of G protein-coupled receptor kinase 6 (Homo sapiens) (P43250 whole entry, looked up): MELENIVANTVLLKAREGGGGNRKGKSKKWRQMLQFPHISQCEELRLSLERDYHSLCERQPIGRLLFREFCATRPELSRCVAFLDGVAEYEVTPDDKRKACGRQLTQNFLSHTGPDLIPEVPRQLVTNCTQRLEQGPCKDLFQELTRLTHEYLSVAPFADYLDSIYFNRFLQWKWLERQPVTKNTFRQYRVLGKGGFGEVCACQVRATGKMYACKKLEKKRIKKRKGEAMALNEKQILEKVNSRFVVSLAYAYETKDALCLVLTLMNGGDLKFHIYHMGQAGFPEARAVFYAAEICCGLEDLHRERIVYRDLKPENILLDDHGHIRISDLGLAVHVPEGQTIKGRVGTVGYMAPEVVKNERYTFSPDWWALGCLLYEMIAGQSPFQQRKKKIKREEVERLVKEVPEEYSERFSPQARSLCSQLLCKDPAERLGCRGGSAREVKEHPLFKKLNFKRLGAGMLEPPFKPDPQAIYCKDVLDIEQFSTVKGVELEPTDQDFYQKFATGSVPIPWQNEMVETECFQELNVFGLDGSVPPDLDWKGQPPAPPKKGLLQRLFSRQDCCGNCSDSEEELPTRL

COc1cc2c(Oc3ccc(-c4nc5ccccc5s4)cc3)ncnc2cc1OCCCN1CCN(C)CC1
residual activity [1]: 89% | residual activity [2]: 113% | residual activity [3]: 85% | residual activity [4]: 99% | residual activity [5]: 91% | residual activity [6]: 99% | residual activity [7]: 102% | residual activity [8]: 68% | residual activity [9]: 80%

COc1cc2c(Oc3ccc(-c4nc5ccccc5s4)cc3)ncnc2cc1OCCCN1CCCC1
residual activity [1]: 91% | residual activity [2]: 100% | residual activity [3]: 96% | residual activity [4]: 83% | residual activity [5]: 90% | residual activity [6]: 128% | residual activity [7]: 100% | residual activity [8]: 81% | residual activity [9]: 90%

COc1cc2c(Oc3ccc(-c4nc5ccccc5s4)cc3F)ncnc2cc1OCCCN1CCN(C)CC1
residual activity [1]: 97% | residual activity [2]: 87% | residual activity [3]: 98% | residual activity [4]: 85% | residual activity [5]: 97% | residual activity [6]: 98% | residual activity [7]: 97% | residual activity [8]: 73% | residual activity [9]: 93%
